# According to patent US20040220148A1, “5-Membered ring heterocycles as inhibitors of leucocyte adhesion and as VLA-4 antagonists” (Aventis Pharma Deutschland GmbH, priority 1996, published 2004):
# Counter-ions that a name gives are not always drawn.
# Target: T1, VLA-4 integrins on human U937 cells (interaction between VCAM-1 and VLA-4) (Homo sapiens, UniProt P05556+P13612)
# T1 construct: the VLA-4 integrins, are offered in their natural form as surface molecules on human U937 cells; host or cells: U937 cells (VLA-4, endogenous); the partner hVCAM-1(1-3)-IgG came from the supernatant of transfected COS cells (ATCC CRL1651)
# Experiment: U937/VCAM-1 cell adhesion test (adhesion of U937 cells to hVCAM-1(1-3)-IgG)
# Format: cell-based
# Details: concentration leading to 50% inhibition of adhesion
# Description: As a test method for the activity of the compounds of the formula I on the interaction between VCAM-1 and VLA-4, an assay which is specific for this interaction is used. The cellular binding components, i.e. the VLA-4 integrins, are offered in their natural form as surface molecules on human U937 cells (ATCC CRL 1593) which belong to the group of leucocytes. As specific binding components, recombinant soluble fusion proteins prepared by genetic engineering and consisting of the extracytoplasmic domains of human VCAM-1 and the constant region of a human immunoglobulin of the subclass IgG1 are used.
# Assay for the Measurement of the Adhesion of U937 Cells (ATCC CRL 1593) to hVCAM-1 (1-3)-IgG
# 1. Preparation of Human VCAM-1(1-3)-IgG and Human CD4-IgG
# A genetic construct for the expression of the extracellular domains of human VCAM-1 was employed, associated with the genetic sequence of the heavy chain of human immunoglobulin IgG1 (hinge, CH2 and CH3 regions), from Dr. Brian Seed, Massachusetts General Hospital, Boston, USA. The soluble fusion protein hVCAM-1(1-3)-IgG contained the three amino-terminal extracellular immunoglobulin-like domains of human VCAM-1 (Damle and Aruffo, Proc. Natl. Acad. Sci. USA 1991, 88, 6403). CD4-IgG (Zettlmeissl et al, DNA and Cell Biology 1990, 9, 347) served as a fusion protein for negative controls. The recombinant proteins were expressed as soluble proteins after DEAE/dextran-mediated DNA-transfection in COS cells (ATCC CRL1651) according to standard procedures (Ausubel et al., Current protocols in molecular biology, John Wiley & Sons, Inc., 1994).
# 2. Assay for Measurement of the Adhesion of U937 Cells to hVCAM-1(1-3)-IgG
# 2.1 96-well microtiter test plates (Nunc Maxisorb) were incubated at room temperature for 1 hour with 100 μl/well of a goat-anti-human IgG antibody solution (10 μg/ml in 50 mM tris, pH 9.5). After removing the antibody solution, washing was carried out once with PBS.
# 2.2 150 μl/well of a blocking buffer (1% BSA in PBS) were incubated on the plates at room temperature for 0.5 hours. After removing the blocking buffer, washing was carried out once with PBS.
# 2.3 100 μl per well of a cell culture supernatant of transfected COS cells were incubated on the plates at room temperature for 1.5 hours. The COS cells were transfected with a plasmid which codes for the three N-terminal immunoglobulin-like domains of VCAM-1, coupled to the Fc part of human IgG1 (hVCAM-1(1-3)-IgG). The content of hVCAM-1 (1-3)-IgG was about […]. After removing the culture supernatant, washing was carried out once with PBS.
# 2.4 The plates were incubated at room temperature for 20 minutes with […] of Fc receptor blocking buffer (1 mg/ml of γ-globulin, 100 mM NaCl, 100 μM MgCl2, 100 μM MnCl2, 100 μM CaCl2, 1 mg/ml BSA in 50 mM HEPES, pH 7.5). After removing the Fc receptor blocking buffer, washing was carried out once with PBS.
# 2.5 20 μl of binding buffer (100 mM NaCl, 100 μM MgCl2, 100 μM MgCl2, 100 μM CaCl2, 1 mg/ml BSA in 50 mM HEPES, pH 7.5), were initially introduced, the substances to be tested were added in 10 μl of binding buffer and the mixture was incubated for 20 minutes. As controls, antibodies against VCAM-1 (BBT, No. BBA6) and against VLA-4
# (Immunotech, No. 0764) were used.
# 2.6 U937 cells were incubated in Fc receptor blocking buffer for 20 minutes and then pipetted in at a concentration of 1×10^6/ml and in an amount of 100 μl per well ([…]).
# 2.7 The plates were slowly immersed at an angle of 45° in stop buffer (100 mM NaCl, 100 μM MgCl2, 100 μM MnCl2, 100 μM CaCl2 in 25 mM Tris, pH 7.5) and shaken off. The process was repeated.
# 2.8 50 μl/well of a dye solution (16.7 μg/ml of Hoechst dye 33258, 4% formaldehyde, 0.5% Triton X-100 in PBS) were then incubated on the plates for 15 minutes.
# 2.9 The plates were shaken off and slowly immersed at an angle of 45° in stop buffer (100 mM NaCl, 100 μM MgCl2, 100 μM MnCl2, 100 μM CaCl2 in 25 mM Tris, pH 7.5). The process was repeated. […]
# T1 sequence (P13612 34-1032): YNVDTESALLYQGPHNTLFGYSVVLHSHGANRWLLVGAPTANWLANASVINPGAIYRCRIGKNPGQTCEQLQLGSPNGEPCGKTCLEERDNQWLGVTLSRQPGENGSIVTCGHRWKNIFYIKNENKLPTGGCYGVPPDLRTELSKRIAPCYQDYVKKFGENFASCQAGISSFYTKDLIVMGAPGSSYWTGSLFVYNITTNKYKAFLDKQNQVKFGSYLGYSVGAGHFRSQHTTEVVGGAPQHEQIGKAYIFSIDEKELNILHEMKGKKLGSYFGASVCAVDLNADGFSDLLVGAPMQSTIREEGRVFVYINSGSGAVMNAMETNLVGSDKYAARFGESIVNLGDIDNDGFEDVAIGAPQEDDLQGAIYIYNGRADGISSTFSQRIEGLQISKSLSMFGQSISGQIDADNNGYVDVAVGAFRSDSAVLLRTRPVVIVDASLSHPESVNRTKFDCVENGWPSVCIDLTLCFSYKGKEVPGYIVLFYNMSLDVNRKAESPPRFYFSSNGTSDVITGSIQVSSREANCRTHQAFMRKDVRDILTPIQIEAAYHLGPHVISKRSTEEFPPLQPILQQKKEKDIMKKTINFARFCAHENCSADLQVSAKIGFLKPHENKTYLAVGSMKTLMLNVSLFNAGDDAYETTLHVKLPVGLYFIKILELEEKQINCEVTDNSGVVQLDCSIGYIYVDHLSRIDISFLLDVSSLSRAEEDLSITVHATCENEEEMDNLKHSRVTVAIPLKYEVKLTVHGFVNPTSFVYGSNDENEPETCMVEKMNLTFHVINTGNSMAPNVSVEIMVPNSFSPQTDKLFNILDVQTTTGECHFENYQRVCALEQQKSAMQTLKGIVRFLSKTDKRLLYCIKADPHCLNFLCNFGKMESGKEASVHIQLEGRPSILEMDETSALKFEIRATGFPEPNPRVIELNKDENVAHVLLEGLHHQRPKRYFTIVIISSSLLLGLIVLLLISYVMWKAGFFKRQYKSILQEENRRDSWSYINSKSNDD
# T1 sequence (P05556 21-798): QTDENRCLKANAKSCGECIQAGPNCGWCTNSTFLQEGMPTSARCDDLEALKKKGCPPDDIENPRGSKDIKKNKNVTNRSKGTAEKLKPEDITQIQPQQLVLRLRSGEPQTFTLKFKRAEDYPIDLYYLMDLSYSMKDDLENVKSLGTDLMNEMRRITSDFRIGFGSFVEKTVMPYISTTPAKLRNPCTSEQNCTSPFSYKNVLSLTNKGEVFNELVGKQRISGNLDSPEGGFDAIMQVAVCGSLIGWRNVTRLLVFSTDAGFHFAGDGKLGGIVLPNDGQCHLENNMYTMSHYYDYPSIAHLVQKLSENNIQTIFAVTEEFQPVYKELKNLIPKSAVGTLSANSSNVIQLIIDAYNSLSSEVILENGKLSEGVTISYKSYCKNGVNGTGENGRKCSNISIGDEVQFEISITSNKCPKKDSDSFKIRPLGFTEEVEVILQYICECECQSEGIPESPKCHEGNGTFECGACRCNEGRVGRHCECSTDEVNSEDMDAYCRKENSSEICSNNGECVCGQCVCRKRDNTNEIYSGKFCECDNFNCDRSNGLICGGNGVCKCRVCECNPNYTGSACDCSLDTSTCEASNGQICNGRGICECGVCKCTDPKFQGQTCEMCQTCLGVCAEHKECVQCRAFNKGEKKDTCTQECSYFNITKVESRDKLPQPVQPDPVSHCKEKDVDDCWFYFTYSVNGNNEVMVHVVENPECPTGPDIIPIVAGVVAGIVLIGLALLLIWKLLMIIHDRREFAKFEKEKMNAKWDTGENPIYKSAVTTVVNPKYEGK
row,SMILES,IC50 [µM]
1,"CC(C)(C)c1ccc(CN2C(=O)N(CC(=O)N[C@@H](CC(=O)O)C(=O)N[C@H](C(=O)O)c3ccccc3)C(=O)C2(C)c2ccc(C(=N)N)cc2)cc1 (mixture of isomers) [Example 5, ((R,S)-4-(4-(Amino-imino-methyl)phenyl)-3-(4-tert-butyl-benzyl)-4-methyl-2,5-dioxoimidazolidin-1-yl)acetyl-L-aspartyl-L-phenylglycine]",15
2,"CC1(c2ccc(C(=N)N)cc2)C(=O)N(CC(=O)N[C@@H](CC(=O)O)C(=O)N[C@H](C(=O)O)c2ccccc2)C(=O)N1Cc1c(F)c(F)c(F)c(F)c1F (mixture of isomers) [Example 6, ((R,S)-4-(4-(Amino-imino-methyl)phenyl)-3-(2,3,4,5,6-pentafluorobenzyl)-4-methyl-2,5-dioxoimidazolidin-1-yl)acetyl-L-aspartyl-L-phenylglycine]",65
3,"CC1(c2ccc(C(=N)N)cc2)C(=O)N(CC(=O)N[C@@H](CC(=O)O)C(=O)N[C@H](C(=O)O)c2ccccc2)C(=O)N1Cc1ccc([N+](=O)[O-])cc1 (mixture of isomers) [Example 7, ((R,S)-4-(4-(Amino-imino-methyl)phenyl)-3-(4-nitrobenzyl)-4-methyl-2,5-dioxoimidazolidin-1-yl)acetyl-L-aspartyl-L-phenylglycine]",25
4,"Cc1cc(C)cc(CN2C(=O)N(CC(=O)N[C@@H](CC(=O)O)C(=O)N[C@H](C(=O)O)c3ccccc3)C(=O)C2(C)c2ccc(C(=N)N)cc2)c1 (mixture of isomers) [Example 8, ((R,S)-4-(4-(Amino-imino-methyl)phenyl)-3-(3,5-dimethylbenzyl)-4-methyl-2,5-dioxoimidazolidin-1-yl)acetyl-L-aspartyl-L-phenylglycine]",3.5
5,CC1(c2ccc(C(=N)N)cc2)C(=O)N(CC(=O)N[C@@H](CC(=O)O)C(=O)N[C@H](C(=O)O)c2ccccc2)C(=O)N1Cc1ccccc1CS(=O)(=O)c1ccccc1 (mixture of isomers) [Example 10],47
6,"CC1(c2ccc(C(=N)N)cc2)C(=O)N(CC(=O)N[C@@H](CC(=O)O)C(=O)N[C@H](C(=O)O)c2ccccc2)C(=O)N1Cc1ccccc1-c1ccccc1 (mixture of isomers) [Example 11, ((R,S)-4-(4-(Amino-imino-methyl)phenyl)-3-((2-biphenylyl)methyl)-4-methyl-2,5-dioxoimidazolidin-1-yl)acetyl-L-aspartyl-L-phenylglycine]",62
7,"Cc1ccc(CN2C(=O)N(CC(=O)N[C@@H](CC(=O)O)C(=O)N[C@H](C(=O)O)c3ccccc3)C(=O)C2(C)c2ccc(C(=N)N)cc2)cc1 (mixture of isomers) [Example 12, ((R,S)-4-(4-(Amino-imino-methyl)phenyl)-3-(4-methylbenzyl)-4-methyl-2,5-dioxoimidazolidin-1-yl)acetyl-L-aspartyl-L-phenylglycine]",2.7
8,"CC1(c2ccc(C(=N)N)cc2)C(=O)N(CC(=O)N[C@@H](CC(=O)O)C(=O)N[C@H](C(=O)O)c2ccccc2)C(=O)N1Cc1cccc2ccccc12 (mixture of isomers) [Example 13, ((R,S)-4-(4-(Amino-imino-methyl)phenyl)-3-((1-naphthyl)methyl)-4-methyl-2,5-dioxoimidazolidin-1-yl)acetyl-L-aspartyl-L-phenylglycine]",3.7
9,"CC1(c2ccc(C(=N)N)cc2)C(=O)N(CC(=O)N[C@@H](CC(=O)O)C(=O)N[C@H](C(=O)O)c2ccccc2)C(=O)N1Cc1ccc(-c2ccccc2)cc1 (mixture of isomers) [Example 14, ((R,S)-4-(4-(Amino-imino-methyl)phenyl)-3-((4-biphenylyl)methyl)-4-methyl-2,5-dioxoimidazolidin-1-yl)acetyl-L-aspartyl-L-phenylglycine]",0.25
10,"CC1(c2ccc(C(=N)N)cc2)C(=O)N(CC(=O)N[C@@H](CC(=O)O)C(=O)N[C@H](C(=O)O)c2ccccc2)C(=O)N1Cc1ccc(C(F)(F)F)cc1 (mixture of isomers) [Example 15, ((R,S)-4-(4-(Amino-imino-methyl)phenyl)-3-(4-trifluoromethylbenzyl)-4-methyl-2,5-dioxoimidazolidin-1-yl)acetyl-L-aspartyl-L-phenylglycine]",32
11,"CC1(c2ccc(C(=N)N)cc2)C(=O)N(CC(=O)N[C@@H](CC(=O)O)C(=O)N[C@H](C(=O)O)c2ccccc2)C(=O)N1Cc1cc(C(F)(F)F)cc(C(F)(F)F)c1 (mixture of isomers) [Example 16, ((R,S)-4-(4-(Amino-imino-methyl)phenyl)-3-(3,5-bis(trifluoromethyl)benzyl)4-methyl-2,5-dioxoimidazolidin-1-yl)acetyl-L-aspartyl-L-phenylglycine]",30
12,"Cc1c(C)c(C)c(CN2C(=O)N(CC(=O)N[C@@H](CC(=O)O)C(=O)N[C@H](C(=O)O)c3ccccc3)C(=O)C2(C)c2ccc(C(=N)N)cc2)c(C)c1C (mixture of isomers) [Example 17, ((R,S)-4-(4-(Amino-imino-methyl)phenyl)-3-(pentamethylbenzyl)-4-methyl-2,5-dioxoimidazolidin-1-yl)acetyl-L-aspartyl-L-phenylglycine]",79
13,"CN(C(=O)CN1C(=O)N(Cc2ccccc2)C(C)(c2ccc(C(=N)N)cc2)C1=O)[C@@H](CC(=O)O)C(=O)N[C@H](C(=O)O)c1ccccc1 (mixture of isomers) [Example 19, ((R,S)-4-(4-(Amino-imino-methyl)phenyl)-3-benzyl-4-methyl-2,5-dioxo-imidazolidin-1-yl)acetyl-L-N-methyl-aspartyl-L-phenylglycine]",0.2
14,"COC(=O)[C@@H](NC(=O)[C@H](CC(=O)O)NC(=O)CN1C(=O)N(Cc2ccccc2)C(C)(c2ccc(C(=N)N)cc2)C1=O)c1ccccc1 (mixture of isomers) [Example 25, ((R,S)-4-(4-(Amino-imino-methyl)phenyl)-3-benzyl-4-methyl-2,5-dioxo-imidazolidin-1-yl)acetyl-L-aspartyl-L-phenylglycine methyl ester]",22
15,"CC1(c2ccc(C(=N)N)cc2)C(=O)N(CC(=O)NCCC(=O)O)C(=O)N1Cc1ccccc1 (racemic) [Example 34, 3-(((R,S)-4-(4-(Amino-imino-methyl)phenyl)-3-benzyl-4-methyl-2,5-dioxoimidazolidin-1-yl)acetylamino)propionic acid hydrochloride]",175
16,"CC1(c2ccc(C(=N)N)cc2)NC(=O)N(CC(=O)N[C@@H](CC(=O)O)C(=O)N[C@H](C(=O)O)c2ccccc2)C1=O (stereo partly drawn) [Example 1, ((R,S)-4-(4-(Amino-imino-methyl)phenyl)-4-methyl-2,5-dioxoimidazolidin-1-yl)acetyl-L-aspartyl-L-phenylglycine]",140
17,"CN1C(=O)N(CC(=O)N[C@@H](CC(=O)O)C(=O)N[C@H](C(=O)O)c2ccccc2)C(=O)C1(C)c1ccc(C(=N)N)cc1 (stereo partly drawn) [Example 2, ((R,S)-4-(4-(Amino-imino-methyl)phenyl)-3,4-dimethyl-2,5-dioxo-imidazolidin-1-yl)acetyl-L-aspartyl-L-phenylglycine]",15
